Experimental data published in patent publication US12303509B2, “Compounds for the treatment of BRAF-associated diseases and disorders” (Pfizer Inc., priority 2020, dated 2025).
Where a name gives a salt, the structure may show the parent alone. Read-outs that look alike come from different tables or passages of the source.

Key:
[1] = test system: A375 cells; assay: Cellular phospho-ERK inhibition assay in A375 cells; format: cell-based; conditions: Homo sapiens, A-375, A375 cells (head prints A357), 2 hours treatment, read-out: A357 cell IC50
Method in brief: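 In Cell Western detection of phospho-ERK1/2 (Thr202/Tyr204) over GAPDH after 2 h compound exposure (66 pM to 10 μM, 9 points, 0.25% DMSO) of A375 cells in DMEM or H1755 cells in RPMI, both with 10% FBS. Percent of control set by DMSO and 10 μM binimetinib; 4-parameter IC50.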

[2] = test system: H1755 cells; assay: Cellular phospho-ERK inhibition assay in H1755 cells; format: cell-based; conditions: Homo sapiens, NCI-H1755, 2 hours treatment, read-out: H1755 Cell IC50
Procedure: A375 and H1755 cells were obtained from the American Type Culture Collection (ATCC, Rockville, MD). A375 cells were maintained in DMEM growth medium containing 10% FBS. H1755 cells were maintained in RPMI growth medium containing 10% FBS.
Cells were harvested according to standard protocols, counted and plated onto flat-bottom, 96-well tissue culture plates (Costar #3599) at 2.5×10^4 cells/well for A375 cells and 1.5×10^4 cells/well for H1755 cells in 100 μL/well of growth medium containing 10% FBS. After an overnight incubation at 37° C. with 5% CO2 cells were treated for 2 hours at 37° C., 5% CO2 with compounds prepared as a 9-point, 1:3.33 fold dilution series with final compound concentrations ranging from 66 pM-10 μM and a constant DMSO concentration of 0.25%. Control wells contained either 0.25% DMSO alone (uninhibited control) or 10 μM binimetinib (complete inhibition control). The levels of phosphorylated ERK are determined using an In Cell Western protocol: following compound incubation, growth medium was discarded, and cells were fixed with 0.4% formaldehyde in PBS for 20 minutes at room temperature. Cells were permeabilized with 100% methanol for 10 minutes at room temperature. Plates were washed with PBS containing 0.05% Tween-20 and blocked for 1 hour at room temperature with LI-COR Blocking Buffer (LI-COR Biosciences; Cat #927-40000). Plates were then incubated for 2 hours at room temperature with 50 μL of a 1:400 dilution of anti-phospho-ERK1/2 (Thr202/Tyr204) (Cell Signaling; Cat #9101) and a 1:1000 dilution of anti-GAPDH (Millipore; Cat #MAB374) in LI-COR blocking buffer containing 0.05% Tween-20. Plates were washed with PBS containing […] Tween-20 then incubated at room temperature for 1 hour with 50 μL of a 1:1000 dilution of anti-rabbit AlexaFluor 680 (Life Technologies; Cat #A21109) and a 1:1000 dilution of anti-mouse IRDye 800CW (LI-COR; Cat #926-32210) in LI-COR blocking buffer containing 0.05% Tween-20. Plates were analyzed by reading on an Odyssey CLx infrared scanner. For each well, the phospho-ERK signal was normalized to the GAPDH signal and converted to POC using the following equation:
[formula] • Where: • Xmax Average Uninhibited Controls • Xmin Average Complete Inhibition Controls IC50 values were then calculated using a 4-parameter fit in XLfit software and are provided in Table A1.

[3] = target: full-length FLAG-tagged B-Raf(V600E) (Homo sapiens (Human), UniProt P15056, V600E); assay: BRAF V600E enzyme assay (TR-FRET competitive displacement); format: binding
Chain of full-length FLAG-tagged B-Raf(V600E) (P15056 whole entry V600E): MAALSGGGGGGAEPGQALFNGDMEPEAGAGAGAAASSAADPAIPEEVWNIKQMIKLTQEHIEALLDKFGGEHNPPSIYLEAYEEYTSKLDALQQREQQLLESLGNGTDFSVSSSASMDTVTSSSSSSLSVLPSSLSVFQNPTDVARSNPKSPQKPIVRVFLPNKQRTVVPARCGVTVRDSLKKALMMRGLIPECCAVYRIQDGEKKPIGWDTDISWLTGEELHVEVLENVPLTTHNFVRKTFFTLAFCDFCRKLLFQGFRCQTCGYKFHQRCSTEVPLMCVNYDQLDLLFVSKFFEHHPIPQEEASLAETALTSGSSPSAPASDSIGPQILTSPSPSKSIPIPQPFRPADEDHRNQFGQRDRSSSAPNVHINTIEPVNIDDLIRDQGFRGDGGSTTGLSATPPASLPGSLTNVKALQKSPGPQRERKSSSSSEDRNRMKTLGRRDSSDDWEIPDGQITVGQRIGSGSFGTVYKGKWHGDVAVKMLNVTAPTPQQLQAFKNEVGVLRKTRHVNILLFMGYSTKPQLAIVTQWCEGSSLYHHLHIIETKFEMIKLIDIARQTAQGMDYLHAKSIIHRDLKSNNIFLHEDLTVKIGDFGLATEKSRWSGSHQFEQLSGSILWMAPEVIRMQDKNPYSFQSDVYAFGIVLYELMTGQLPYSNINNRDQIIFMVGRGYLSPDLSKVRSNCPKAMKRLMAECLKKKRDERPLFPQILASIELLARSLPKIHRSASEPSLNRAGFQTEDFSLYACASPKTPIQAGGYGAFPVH
Method in brief: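 TR-FRET tracer competition: compound (top dose 10 μM, 3-fold, 11 points) incubated 60 min at ambient temperature with FLAG-tagged full-length B-Raf(V600E) (5 nM), Eu anti-FLAG cryptate (0.5 nM) and tracer (50 nM), pH 7.4 HEPES/MgCl2 buffer. 665/615 ratio converted to percent of control; IC50 where fitted curve crosses 50 POC.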

[4] = target: P-gp (MDR1) (Homo sapiens (Human), UniProt P08183); assay: MDR1 LLC-PK1 permeability assay: efflux ratio; format: in vitro ADME; conditions: pig
Chain of P-gp (MDR1) (P08183 whole entry, species assumed): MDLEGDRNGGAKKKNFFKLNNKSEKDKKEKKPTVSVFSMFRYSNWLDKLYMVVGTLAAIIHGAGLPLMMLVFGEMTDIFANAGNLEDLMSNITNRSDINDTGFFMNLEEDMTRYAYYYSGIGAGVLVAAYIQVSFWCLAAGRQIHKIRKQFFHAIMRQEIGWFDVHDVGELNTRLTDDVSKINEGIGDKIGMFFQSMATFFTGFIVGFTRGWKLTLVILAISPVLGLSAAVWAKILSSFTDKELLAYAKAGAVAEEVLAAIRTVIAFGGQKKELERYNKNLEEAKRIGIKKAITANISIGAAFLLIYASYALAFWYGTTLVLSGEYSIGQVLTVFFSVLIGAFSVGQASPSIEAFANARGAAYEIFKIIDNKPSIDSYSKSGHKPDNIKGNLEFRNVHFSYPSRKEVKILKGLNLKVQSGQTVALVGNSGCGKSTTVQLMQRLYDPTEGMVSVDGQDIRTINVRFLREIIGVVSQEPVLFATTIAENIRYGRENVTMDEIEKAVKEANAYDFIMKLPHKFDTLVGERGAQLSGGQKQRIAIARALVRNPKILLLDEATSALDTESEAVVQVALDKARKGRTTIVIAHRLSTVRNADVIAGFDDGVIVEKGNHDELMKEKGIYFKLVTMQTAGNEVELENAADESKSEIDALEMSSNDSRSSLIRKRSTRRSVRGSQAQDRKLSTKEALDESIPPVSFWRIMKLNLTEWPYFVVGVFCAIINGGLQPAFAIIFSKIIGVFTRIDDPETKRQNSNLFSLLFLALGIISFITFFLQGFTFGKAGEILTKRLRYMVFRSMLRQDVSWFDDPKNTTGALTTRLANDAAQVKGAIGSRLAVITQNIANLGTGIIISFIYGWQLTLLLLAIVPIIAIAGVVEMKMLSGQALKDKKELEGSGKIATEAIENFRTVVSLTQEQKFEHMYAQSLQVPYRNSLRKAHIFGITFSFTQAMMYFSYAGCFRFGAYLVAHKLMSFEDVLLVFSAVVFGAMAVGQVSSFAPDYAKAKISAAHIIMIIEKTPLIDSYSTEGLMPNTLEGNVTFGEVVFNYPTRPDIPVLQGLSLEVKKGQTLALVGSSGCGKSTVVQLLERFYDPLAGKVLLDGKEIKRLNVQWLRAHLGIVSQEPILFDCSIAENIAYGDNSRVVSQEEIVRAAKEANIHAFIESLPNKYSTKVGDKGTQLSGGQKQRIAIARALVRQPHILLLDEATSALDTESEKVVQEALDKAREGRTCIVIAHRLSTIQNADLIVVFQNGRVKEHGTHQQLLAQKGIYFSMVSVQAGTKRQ
Source text: (§1) Final organic concentration in the assay was 1%.

[5] = target: BCRP (Homo sapiens (Human), UniProt Q9UNQ0); assay: BCRP MDCKII permeability assay: efflux ratio; format: in vitro ADME; conditions: dog
Chain of BCRP (Q9UNQ0 whole entry): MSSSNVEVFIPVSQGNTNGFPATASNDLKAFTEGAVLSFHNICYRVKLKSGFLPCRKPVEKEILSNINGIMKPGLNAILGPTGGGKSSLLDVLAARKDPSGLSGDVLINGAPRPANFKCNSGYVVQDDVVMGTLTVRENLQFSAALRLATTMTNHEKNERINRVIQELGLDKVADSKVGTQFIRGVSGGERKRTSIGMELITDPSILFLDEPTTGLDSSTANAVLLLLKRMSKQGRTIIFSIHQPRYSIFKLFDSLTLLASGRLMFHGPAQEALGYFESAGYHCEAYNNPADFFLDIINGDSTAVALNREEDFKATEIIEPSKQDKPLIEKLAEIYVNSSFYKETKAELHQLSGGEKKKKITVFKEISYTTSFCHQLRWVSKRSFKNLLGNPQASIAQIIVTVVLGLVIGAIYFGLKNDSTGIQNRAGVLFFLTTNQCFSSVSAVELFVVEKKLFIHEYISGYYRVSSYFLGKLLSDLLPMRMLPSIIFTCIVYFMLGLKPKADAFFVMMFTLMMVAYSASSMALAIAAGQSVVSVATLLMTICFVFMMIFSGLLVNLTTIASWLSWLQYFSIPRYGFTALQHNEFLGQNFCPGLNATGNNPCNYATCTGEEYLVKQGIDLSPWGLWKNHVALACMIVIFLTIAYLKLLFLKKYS

[6] = MDR1 LLC-PK1 and BCRP MDCKII permeability assay: permeability coefficient (Papp); format: in vitro ADME
Source text: as §1

[7] = averaged IC50, TR-FRET tracer displacement, 60 min

| Compound | IC50 [1] [nM] | IC50 [2] [nM] | IC50 [3, 7] [nM] | efflux ratio at 2 h, 1 µM [4] | efflux ratio at 2 h, 1 µM [5] | Papp at 2 h, 1 µM [6] [×10⁻⁶ cm/s] | IC50 [3] [nM] |
| --- | --- | --- | --- | --- | --- | --- | --- |
| Cc1c(Nc2c(F)ccc(NS(=O)(=O)N3CC[C@H](F)C3)c2Cl)ccc2ncn(C)c(=O)c12 [Example 86, (S)-N-(2-chloro-3-((3,5-dimethyl-4-oxo-3,4-dihydroquinazolin-6-yl)amino)-4-fluorophenyl)-3-fluoropyrrolidine-1-sulfonamide trifluoroacetate] | 34 | 182 | 42 | 1.9 | 1.6 | 28 |  |
| Cn1cnc2ccc(Nc3c(F)ccc(NS(=O)(=O)N4CC[C@@H](F)C4)c3Cl)c(Br)c2c1=O [Example 24, (R)-N-(3-((5-bromo-3-methyl-4-oxo-3,4-dihydroquinazolin-6-yl)amino)-2-chloro-4-fluorophenyl)-3-fluoropyrrolidine-1-sulfonamide trifluoroacetate] | 8 | 25 | 2 | 2.5 | 2.6 | 27 |  |
| Cc1c(Nc2c(F)ccc(NS(=O)(=O)N3CC4CC4(F)C3)c2Cl)ccc2ncn(C)c(=O)c12 (stereo not shown) [Example 149, N-(2-chloro-3-((3,5-dimethyl-4-oxo-3,4-dihydroquinazolin-6-yl)amino)-4-fluorophenyl)-1-fluoro-3-azabicyclo[3.1.0]hexane-3-sulfonamide] | 108 | 337 | 8 | 1.2 | 3.2 | 25 |  |
| Cn1cnc2ccc(Nc3c(F)ccc(NS(=O)(=O)N4CCC(F)(F)C4)c3Cl)c(Cl)c2c1=O [Example 25, N-(2-chloro-3-((5-chloro-3-methyl-4-oxo-3,4-dihydroquinazolin-6-yl)amino)-4-fluorophenyl)-3,3-difluoropyrrolidine-1-sulfonamide trifluoroacetate] | 16 | 94 | 2 | 1.6 | 2.4 | 30 |  |
| CO[C@@H]1CCN(S(=O)(=O)Nc2ccc(F)c(Nc3ccc4ncn(C)c(=O)c4c3Br)c2Cl)C1 [Example 8, (R)-N-(3-((5-bromo-3-methyl-4-oxo-3,4-dihydroquinazolin-6-yl)amino)-2-chloro-4-fluorophenyl)-3-methoxypyrrolidine-1-sulfonamide trifluoroacetate] | 12 | 26 | 10 | 2.5 | 1.3 | 23 |  |
| Cn1cnc2ccc(Nc3c(F)ccc(NS(=O)(=O)N4CC(F)(F)C4)c3Cl)c(Cl)c2c1=O [Example 135, N-(2-chloro-3-((5-chloro-3-methyl-4-oxo-3,4-dihydroquinazolin-6-yl)amino)-4-fluorophenyl)-3,3-difluoroazetidine-1-sulfonamide] | 22 | 189 | 3 | 1.9 | 5.1 | 29 |  |
| Cc1c(Nc2c(F)c(F)cc(NS(=O)(=O)N3CC[C@@H](F)C3)c2Cl)ccc2ncn(C)c(=O)c12 [Example 35, (R)-N-(2-chloro-3-((3,5-dimethyl-4-oxo-3,4-dihydroquinazolin-6-yl)amino)-4,5-difluorophenyl)-3-fluoropyrrolidine-1-sulfonamide] | 21 | 163 | 2 | 1.5 | 2.1 | 31 |  |
| Cn1cnc2ccc(Nc3c(F)ccc(NS(=O)(=O)N4CC(COC(F)F)C4)c3Cl)c(F)c2c1=O [Example 139, N-(2-chloro-4-fluoro-3-((5-fluoro-3-methyl-4-oxo-3,4-dihydroquinazolin-6-yl)amino)phenyl)-3-((difluoromethoxy)methyl)azetidine-1-sulfonamide trifluoroacetate] | 3 | 10 | 4 | 5.3 |  | 32 |  |
| Cc1c(Nc2c(F)ccc(NS(=O)(=O)N3CC(C)(F)C3)c2Cl)ccc2ncn(C)c(=O)c12 [Example 155, N-(2-chloro-3-((3,5-dimethyl-4-oxo-3,4-dihydroquinazolin-6-yl)amino)-4-fluorophenyl)-3-fluoro-3-methylazetidine-1-sulfonamide trifluoroacetate] | 99 | 1770 |  | 1.4 | 1.2 | 34 |  |
| Cn1cnc2ccc(Oc3c(F)ccc(NS(=O)(=O)N4C[C@@H](F)[C@@H](F)C4)c3Cl)c(F)c2c1=O [Example 64, cis-N-(2-chloro-4-fluoro-3-((5-fluoro-3-methyl-4-oxo-3,4-dihydroquinazolin-6-yl)oxy)phenyl)-3,4-difluoropyrrolidine-1-sulfonamide] | 7 | 64 |  | 4.5 |  | 34 | 2 |
| Cn1cnc2ccc(Nc3c(F)ccc(NS(=O)(=O)N4CC(F)C4)c3Cl)c(F)c2c1=O [Example 127, N-(2-chloro-4-fluoro-3-((5-fluoro-3-methyl-4-oxo-3,4-dihydroquinazolin-6-yl)amino)phenyl)-3-fluoroazetidine-1-sulfonamide trifluoroacetate] | 2 | 16 |  | 3.8 | 5.1 | 34 |  |
| COCC1CN(S(=O)(=O)Nc2ccc(F)c(Oc3ccc4ncn(C)c(=O)c4c3Cl)c2Cl)C1 [Example 118, N-(2-chloro-3-((5-chloro-3-methyl-4-oxo-3,4-dihydroquinazolin-6-yl)oxy)-4-fluorophenyl)-3-(methoxymethyl)azetidine-1-sulfonamide] | 6 | 41 | 4 | 3.5 |  | 34 |  |
| COCC1CN(S(=O)(=O)Nc2ccc(F)c(Nc3ccc4ncn(C)c(=O)c4c3F)c2Cl)C1 [Example 133, N-(2-chloro-4-fluoro-3-((5-fluoro-3-methyl-4-oxo-3,4-dihydroquinazolin-6-yl)amino)phenyl)-3-(methoxymethyl)azetidine-1-sulfonamide trifluoroacetate] | 1 | 11 | 5 | 5.7 |  | 33 |  |
| COC1CN(S(=O)(=O)Nc2ccc(F)c(Oc3ccc4ncn(C)c(=O)c4c3Cl)c2Cl)C1 [Example 119, N-(2-chloro-3-((5-chloro-3-methyl-4-oxo-3,4-dihydroquinazolin-6-yl)oxy)-4-fluorophenyl)-3-methoxyazetidine-1-sulfonamide] | 8 | 51 | 6 | 3.8 |  | 32 |  |
| Cn1cnc2ccc(Nc3cc(Cl)cc(NS(=O)(=O)N4CC[C@@H](F)C4)c3F)c(Cl)c2c1=O [Example 56, (R)-N-(5-chloro-3-((5-chloro-3-methyl-4-oxo-3,4-dihydroquinazolin-6-yl)amino)-2-fluorophenyl)-3-fluoropyrrolidine-1-sulfonamide trifluoroacetate] | 4 | 23 | 1 | 2.3 | 2.8 |  |  |
